Source: US12233107B2, “GHRH or analogues thereof for use in treatment of hepatic disease” (The General Hospital Corporation, priority 2019, dated 2025)
One block for each compound: values may come before it.

Legend:
[1] = system: HIV-infected subjects with NAFL/NASH; conditions: in vivo
[2] = system: HIV-infected subjects with NAFL/NASH; set-up: species or system human; conditions: in vivo
Method: The study consisted of a 12-month, double-blind treatment phase during which participants were randomized in a 1:1 ratio receive to tesamorelin 2 mg daily or identical placebo, followed by a 6-month open label phase during which all participants receive tesamorelin. The pre-specified primary analysis, comparing changes over twelve months in tesamorelin vs. placebo treatment, is reported here. Randomization was stratified by site (NIH and MGH) and vitamin E use, defined as consistent use of ≥400 international units daily. The randomization list was prepared by the study statistician using a permuted block algorithm within each stratum with randomly varying block sizes. […] IGF-1 Z-scores were monitored throughout the study by an independent endocrinologist at MGH otherwise unaffiliated with the study. […]
Laboratory analyses were conducted using standard methodologies. Clinical labs were measured at the NIH Clinical Laboratory and, for MGH, at LabCorp and Quest. IGF-1 was measured centrally at Quest Laboratories. C-reactive protein was measured using electrochemiluminescense (Meso Scale Discovery, Rockville, MD), and adiponectin was measured using ELISA (R&D Systems, Minneapolis, MN).
Per the pre-specified analysis plan, change in HFF was assessed by random intercept mixed effects modeling using restricted maximum likelihood to assess the effect estimate for the time×randomization interaction. […]

[3] = system: HIV-infected subjects with NAFL/NASH; set-up: species or system human; conditions: in vivo; remark: listed apart in the source
Method: Participants at MGH also underwent a euglycemic hyperinsulinemic clamp procedure to assess insulin sensitivity. After a 14-hour overnight fast, a low-dose (insulin 20 mU/m^2/min) clamp for 2 hours was followed by a high-dose (insulin 80 mU/m^2/min) clamp for 2 hours as previously described (Braun L R, et al. Effects of Pitavastatin on Insulin Sensitivity and Liver Fat: A Randomized Clinical Trial. J Clin Endocrinol Metab 2018; 103:4176-86). Insulin stimulated glucose disposal (M) were calculated during the last 20 minutes of low-dose and high-dose clamp using the DeFronzo method (DeFronzo R A, Tobin J D, Andres R. Am J Physiol 1979; 237:E214-23) as the primary indices of hepatic and whole-body insulin sensitivity, respectively.

[4] = system: NASH in the general population; conditions: cited from earlier work
[5] = system: patients with HIV-associated NAFLD; conditions: Ajmera et al., Hepatology 2019; cited from earlier work
[6] = system: patients with primary NAFLD; conditions: cited from earlier work

- Arthralgia [1]: 3
- Hyperglycemia [1]: 12
- Injection site bruising [1]: 11
- Injection site erythema [1]: 3
- Injection site stinging [1]: 4
- Myalgia [1]: 2
- Other infection [1]: 7
- Other injection site complaints [1]: 10
- Paresthesia [1]: 2
- URI [1]: 5
- discontinuations for hyperglycemia [1]: two
- fasting glucose [2]: did not significantly affect
- hemoglobin A1c [2]: did not significantly affect
- treatment effect for high-dose M (insulin stimulated glucose uptake, high-dose clamp) [3]: −0.9
- treatment effect for low-dose M (glucose infusion rate, low-dose clamp) [3]: 0.0 mg/kg/min
Compound: CC/C=C/CC(=O)N[C@@H](Cc1ccc(O)cc1)C(=O)N[C@@H](C)C(=O)N[C@@H](CC(=O)O)C(=O)N[C@@H](C)C(=O)N[C@H](C(=O)N[C@@H](Cc1ccccc1)C(=O)N[C@H](C(=O)N[C@@H](CC(N)=O)C(=O)N[C@@H](CO)C(=O)N[C@@H](Cc1ccc(O)cc1)C(=O)N[C@@H](CCCNC(=N)N)C(=O)N[C@@H](CCCCN)C(=O)N[C@H](C(=O)N[C@@H](CC(C)C)C(=O)NCC(=O)N[C@@H](CCC(N)=O)C(=O)N[C@@H](CC(C)C)C(=O)N[C@@H](CO)C(=O)N[C@@H](C)C(=O)N[C@@H](CCCNC(=N)N)C(=O)N[C@@H](CCCCN)C(=O)N[C@@H](CC(C)C)C(=O)N[C@@H](CC(C)C)C(=O)N[C@@H](CCC(N)=O)C(=O)N[C@@H](CC(=O)O)C(=O)N[C@H](C(=O)N[C@@H](CCSC)C(=O)N[C@@H](CO)C(=O)N[C@@H](CCCNC(=N)N)C(=O)N[C@@H](CCC(N)=O)C(=O)N[C@@H](CCC(N)=O)C(=O)NCC(=O)N[C@@H](CCC(=O)O)C(=O)N[C@@H](CO)C(=O)N[C@@H](CC(N)=O)C(=O)N[C@@H](CCC(N)=O)C(=O)N[C@@H](CCC(=O)O)C(=O)N[C@@H](CCCNC(=N)N)C(=O)NCC(=O)N[C@@H](C)C(=O)N[C@@H](CCCNC(=N)N)C(=O)N[C@@H](C)C(=O)N[C@@H](CCCNC(=N)N)C(=O)N[C@@H](CC(C)C)C(N)=O)[C@@H](C)CC)C(C)C)[C@@H](C)O)[C@@H](C)CC [Tesamorelin, trans-3-hexenoyl-GHRH(1-44)-NH2]
- Any adverse event [1]: 29
- Other adverse events [1]: 25
- relation of serious adverse events to study drug [1]: None were judged as related to study drug

Compound: Vitamin E
- histological features of NASH [4]: improve

Compound: CCCCCCCCCCCCCCCCCCCC(=O)N[C@H]1CC[C@@]2(C)[C@@H](C1)C[C@@H](O)[C@@H]1[C@@H]2C[C@H](O)[C@]2(C)[C@@H]([C@H](C)CCC(=O)O)CC[C@@H]12 [aramchol]
- effect in patients with HIV-associated NAFLD [5]: no significant effect
- hepatic-fat content [6]: reduce
